Earlier results in patent US10272077B2, “Piperidinone carboxamide azaindane CGRP receptor antagonists” (Merck Sharp & Dohme Corp., priority 2010, dated 2019).
Ends that are not written are not given here.

How the values were obtained:
[1] = rat (Escott et al. 1995)
[2] = rats, prior administration (Williamson et al. 1997)
[3] = marmoset (Doods et al. 2000)
[4] = control group (Petersen et al. 2005)

O=C(N[C@@H]1CC[C@@H](c2cccc(F)c2F)CN(CC(F)(F)F)C1=O)N1CCC(n2c(=O)[nH]c3ncccc32)CC1 [telcagepant]
antimigraine effectiveness (phase III clinical trials, orally bioavailable): shown antimigraine effectiveness

CGRP(8-37) (VTHRLAGLLSRSGGVVKNNFVPTNVGSKAF; ends and bridges not checked; UniProt P06881 90-119, looked up, fragment) [a peptide CGRP receptor antagonist]
effect on increased facial blood flow [1]: inhibited | effect on increase of middle meningeal artery diameter [2]: blocked

NCCCC[C@H](NC(=O)[C@@H](Cc1cc(Br)c(O)c(Br)c1)NC(=O)N1CCC(N2Cc3ccccc3NC2=O)CC1)C(=O)N1CCN(c2ccncc2)CC1 [BIBN4096BS]
treatment of acute attacks of migraine (clinical trials (Olesen et al. 2004)): effective in treating acute attacks of migraine | effect on increase in facial blood flow [3]: could be blocked | prevention of headache induced by CGRP infusion [4]: able to prevent headache induced by CGRP infusion
